Laboratory results as given in PubChem BioAssay (NCI).
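Test compounds were applied to cells in 96-well plates for 48 hours at 5 doses. At the TGI there is no net growth.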

How the values were obtained:
Assay in all cases: NCI-60 cell line screen, 48 h
KM12 colon = tested on: KM12 colon
K-562 leukemia = tested on: K-562 leukemia
RPMI-8226 leukemia = tested on: RPMI-8226 leukemia
HL-60(TB) leukemia = tested on: HL-60(TB) leukemia
HOP-92 NSCLC = tested on: HOP-92 NSCLC
BT-549 breast = tested on: BT-549 breast
PC-3 prostate = tested on: PC-3 prostate
SF-268 CNS = tested on: SF-268 CNS
SK-MEL-5 melanoma = tested on: SK-MEL-5 melanoma
OVCAR-4 ovarian = tested on: OVCAR-4 ovarian
EKVX NSCLC = tested on: EKVX NSCLC
HOP-62 NSCLC = tested on: HOP-62 NSCLC
SK-MEL-2 melanoma = tested on: SK-MEL-2 melanoma
SN12C renal = tested on: SN12C renal
SNB-19 CNS = tested on: SNB-19 CNS
HT29 colon = tested on: HT29 colon
A549 NSCLC = tested on: A549 NSCLC
MDA-MB-231 breast = tested on: MDA-MB-231 breast
ACHN renal = tested on: ACHN renal
NCI/ADR-RES ovarian = tested on: NCI/ADR-RES ovarian

Compound | TGI (KM12 colon) [µM] | TGI (K-562 leukemia) [µM] | TGI (RPMI-8226 leukemia) [µM] | TGI (HL-60(TB) leukemia) [µM] | TGI (HOP-92 NSCLC) [µM] | TGI (BT-549 breast) [µM] | TGI (PC-3 prostate) [µM] | TGI (SF-268 CNS) [µM] | TGI (SK-MEL-5 melanoma) [µM] | TGI (OVCAR-4 ovarian) [µM] | TGI (EKVX NSCLC) [µM] | TGI (HOP-62 NSCLC) [µM] | TGI (SK-MEL-2 melanoma) [µM] | TGI (SN12C renal) [µM] | TGI (SNB-19 CNS) [µM] | TGI (HT29 colon) [µM] | TGI (A549 NSCLC) [µM] | TGI (MDA-MB-231 breast) [µM] | TGI (ACHN renal) [µM] | TGI (NCI/ADR-RES ovarian) [µM]
O=C1NC2O[C@H](CNC(=O)c3cc(Br)c[nH]3)CC2(O)N1 (mixture of isomers) | > 100 | > 100 | > 100 | > 100 | > 100 | > 100 | > 100 | > 100 | > 100 | > 100 | > 100 | > 100 | > 100 | > 100 | > 100 | > 100 | > 100 | > 100 | > 100 | > 100
C[N+]1(C)CCc2cc(O)c(O)cc2C1Cc1ccc(O)c(O)c1 (centres undefined) | > 100 | > 100 | 65.9 | 54.8 | 63.7 | > 100 | > 100 | > 100 | > 100 | 45.6 | > 100 | > 100 | > 100 | > 100 | > 100 | > 100 | > 100 | > 100 | > 100 | > 100
CCOC(=O)C1C(=O)CC1(C)C (centres undefined) | > 10 | > 10 | > 10 | > 10 | > 10 | > 10 | > 10 | > 10 | > 10 | > 10 | > 10 | > 10 | > 10 | > 10 | > 10 | > 10 | > 10 | > 10 | > 10 | > 10
COC(=O)c1cc2c(cc1Cl)Sc1nnc(Nc3ccc(C)cc3)n1S2(=O)=O | 20.3 | 33.4 | 5.44 | 13.8 | 16.5 | 30.5 | 18 | 10.9 | 27.6 | 10.7 | 27.7 | 23.5 | 9.16 | 36.5 | 20.2 | 15.5 | 35.8 | 27.2 | 8.8 | 25.7
CC1(C)OC(=O)N(c2ccccc2)C12C=Cc1cc([N+](=O)[O-])ccc1O2 (centres undefined) | > 100 | > 100 | > 100 | 63.7 | 86.9 | > 100 | > 100 | > 100 | > 100 | > 100 | 98.7 | > 100 | > 100 | > 100 | > 100 | > 100 | > 100 | 80.4 | > 100 | > 100
N#Cc1c(-c2ccccc2)[nH]c2ccc(Cl)cc2c1=O | > 100 | > 100 | > 100 | > 100 | 51.1 | 80.9 | > 100 | > 100 | > 100 | > 100 | > 100 | 74 | 94.3 | > 100 | 59.9 | > 100 | > 100 | 89.7 | > 100 | > 100
CCN1CCN(c2nc3ccccc3c3c2CCOc2ccccc2-3)CC1 | > 56 | > 100 | 50 | > 77.3 | > 73.1 | > 100 | > 90.9 | > 100 | 36.7 | > 100 | > 100 | > 100 | > 67.4 | > 84 | > 75.1 | > 51.5 | > 69.3 | > 61.2 | > 100 | > 78.1
CSc1nnc(SC)nn1 | 30 | 27.4 | 32.7 | 11.6 | 14.8 | 29.7 | 33.7 | 29.4 | 29.6 | 32.5 | 30.8 | 29.1 |  | 39.7 | 43.3 | 36.5 | 43.3 | 39.7 | 30.5 | 31.9
O=C(N/N=C\C=C\c1ccc([N+](=O)[O-])o1)C(=O)N/N=C\C=C\c1ccc([N+](=O)[O-])o1 | > 100 | > 100 | > 100 | 87.1 | > 100 | > 100 | > 100 | > 100 | > 100 | > 100 | > 100 | > 100 | > 100 | > 100 | > 100 | > 100 | > 100 | > 100 | > 100 | 70.1
